Measurements taken from patent publication US20100172983A1 (priority 2001, published 2010).

How the values were obtained:
intragastric pH = experiment: Emax model: esomeprazole AUC0-24 vs percent time intragastric pH>4.0 on Day 9 (Example 11); type: in vivo, human
[1] = in vivo; cited from earlier work
gastric pH = settings: during the 8-10 hours following naproxen sodium dosing
gastroduodenal mucosa = settings: twice daily for five days

Q: Which “Emax, maximal effect: % of time with intragastric pH>4.0 over the daily interval at steady state” value (intragastric pH; Day 9) does the source give for `COc1ccc2nc([S@@+]([O-])Cc3ncc(C)c(OC)c3C)[nH]c2c1` [esomeprazole] here?
A: 90.4%

Q: And the “AUC0-24 value required to achieve half (or 50%) of the maximal response (EC50)” value (intragastric pH; Day 9, plasma esomeprazole)?
A: 713 ng·h/mL

Q: For `CCc1cccc2c3c([nH]c12)C(CC)(CC(=O)O)OCC3` (stereo not drawn) [etodolac], which half-life [1] is on record?
A: about 7 hours

Q: For `CC(C(=O)O)c1ccc(-c2ccccc2)c(F)c1` (stereo not drawn) [flurbiprofen], which half-life [1] is on record?
A: about 6 hours

Q: Which half-life [1] does the source give for `O=C(c1ccccc1)c1ccc2n1CCC2C(=O)O` (stereo not drawn) [ketorolac] here?
A: 8 to 9 h

Q: With `Cc1cccc(Nc2ccccc2C(=O)O)c1C` [mefenamic acid] as the compound, how does the half-life [1] read?
A: up to 4 hours

Q: Which “time the pH was greater than 4” value (gastric pH) does the source give for `COc1ccc2cc([C@H](C)C(=O)O)ccc2c1` [naproxen sodium] here?
A: 4%

Q: What about the “patients presenting with gastroduodenal ulcers at the end of the study” value (gastroduodenal mucosa) of the same compound?
A: 33%

Q: What about the “subjects with Lanza grade 3 or 4 damage” value (gastroduodenal mucosa; Day 5 endoscopy) of the same compound?
A: 100%
